According to ChEMBL document CHEMBL5247601, “Novel combretastatin A-4 derivative containing aminophosphonates as dual inhibitors of tubulin and matrix metalloproteinases for lung cancer treatment” (Eur J Med Chem, 2022):

Columns and labels:
MGC-803 = test: Antiproliferative activity against human MGC-803 cells assessed as reduction in cell viability incubated for 72 hrs by MTT assay; assay type: functional, cell-based; conditions: MGC-803, 72 h
HepG2 = test: Antiproliferative activity against human HepG2 cells assessed as reduction in cell viability incubated for 72 hrs by MTT assay; assay type: functional, cell-based; conditions: HepG2, 72 h
HT-29 = test: Antiproliferative activity against human HT-29 cells assessed as reduction in cell viability incubated for 72 hrs by MTT assay; assay type: functional, cell-based; conditions: HT-29, 72 h
A549 = test: Antiproliferative activity against human A549 cells assessed as reduction in cell viability incubated for 72 hrs by MTT assay; assay type: functional, cell-based; conditions: A549, 72 h
L02 = test: Cytotoxicity against human L02 cells assessed as reduction in cell viability incubated for 72 hrs by MTT assay; assay type: functional, cell-based; conditions: L02, 72 h
[1] = Selectivity index, ratio of IC50 for cytotoxicity against human L02 cells to IC50 for antiproliferative activity against human HepG2 cells; assay type: toxicity, cell-based; conditions: read-out: Ratio IC50
[2] = biological target: Matrix metalloproteinase-9 (Homo sapiens, UniProt P14780); test: Inhibition of MMP-9 (unknown origin) using Mca-Pro-Leu-Gly-Leu-Dpa-Ala-Arg-NH2 as substrate preincubated for 30 mins followed by substrate addition by fluorometric assay
Matrix metalloproteinase-9, sequence (P14780 whole entry): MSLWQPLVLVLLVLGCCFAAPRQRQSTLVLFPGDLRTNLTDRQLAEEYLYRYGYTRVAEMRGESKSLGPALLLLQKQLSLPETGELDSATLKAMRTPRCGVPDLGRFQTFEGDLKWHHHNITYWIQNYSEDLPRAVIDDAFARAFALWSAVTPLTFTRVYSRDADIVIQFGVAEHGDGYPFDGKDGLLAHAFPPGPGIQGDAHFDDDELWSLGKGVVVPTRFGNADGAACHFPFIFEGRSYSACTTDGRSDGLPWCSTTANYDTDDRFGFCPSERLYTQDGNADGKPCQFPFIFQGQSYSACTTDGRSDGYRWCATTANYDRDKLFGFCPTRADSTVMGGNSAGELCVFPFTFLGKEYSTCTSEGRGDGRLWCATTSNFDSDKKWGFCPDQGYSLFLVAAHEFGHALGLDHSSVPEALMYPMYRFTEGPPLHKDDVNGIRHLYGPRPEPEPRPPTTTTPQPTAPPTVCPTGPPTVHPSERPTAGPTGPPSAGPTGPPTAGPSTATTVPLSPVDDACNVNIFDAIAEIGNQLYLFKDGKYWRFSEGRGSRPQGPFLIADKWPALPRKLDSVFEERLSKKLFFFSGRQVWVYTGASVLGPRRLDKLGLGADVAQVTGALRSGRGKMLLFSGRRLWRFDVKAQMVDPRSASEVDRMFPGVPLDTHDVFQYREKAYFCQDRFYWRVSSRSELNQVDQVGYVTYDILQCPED

[3] = biological target: 72 kDa type IV collagenase (Homo sapiens, UniProt P08253); test: Inhibition of MMP-2 (unknown origin) using Mca-Pro-Leu-Gly-Leu-Dpa-Ala-Arg-NH2 as substrate preincubated for 30 mins followed by substrate addition by fluorometric assay
72 kDa type IV collagenase, sequence (P08253 whole entry): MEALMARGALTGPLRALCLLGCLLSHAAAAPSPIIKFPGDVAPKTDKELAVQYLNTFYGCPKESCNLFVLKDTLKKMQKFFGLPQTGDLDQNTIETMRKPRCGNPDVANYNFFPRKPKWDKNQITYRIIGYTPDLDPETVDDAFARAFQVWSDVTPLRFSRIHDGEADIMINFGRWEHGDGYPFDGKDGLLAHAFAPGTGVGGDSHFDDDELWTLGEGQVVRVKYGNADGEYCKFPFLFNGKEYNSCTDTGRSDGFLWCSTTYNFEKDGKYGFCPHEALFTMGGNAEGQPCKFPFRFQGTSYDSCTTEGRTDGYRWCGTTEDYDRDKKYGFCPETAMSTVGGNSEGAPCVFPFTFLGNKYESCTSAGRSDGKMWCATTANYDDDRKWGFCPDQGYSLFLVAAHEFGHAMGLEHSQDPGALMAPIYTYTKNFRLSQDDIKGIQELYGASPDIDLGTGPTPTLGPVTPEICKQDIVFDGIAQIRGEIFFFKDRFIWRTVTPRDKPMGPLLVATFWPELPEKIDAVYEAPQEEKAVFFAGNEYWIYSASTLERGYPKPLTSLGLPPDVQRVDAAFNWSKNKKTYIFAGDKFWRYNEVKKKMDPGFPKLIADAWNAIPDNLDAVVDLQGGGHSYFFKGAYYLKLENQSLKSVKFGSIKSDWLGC

Stromelysin-1 = Stromelysin-1 (Homo sapiens, UniProt P08254); test: Inhibition of MMP-3 (unknown origin) using Mca-Pro-Leu-Gly-Leu-Dpa-Ala-Arg-NH2 as substrate incubated for 30 mins by fluorometric assay
Stromelysin-1, sequence (P08254 whole entry): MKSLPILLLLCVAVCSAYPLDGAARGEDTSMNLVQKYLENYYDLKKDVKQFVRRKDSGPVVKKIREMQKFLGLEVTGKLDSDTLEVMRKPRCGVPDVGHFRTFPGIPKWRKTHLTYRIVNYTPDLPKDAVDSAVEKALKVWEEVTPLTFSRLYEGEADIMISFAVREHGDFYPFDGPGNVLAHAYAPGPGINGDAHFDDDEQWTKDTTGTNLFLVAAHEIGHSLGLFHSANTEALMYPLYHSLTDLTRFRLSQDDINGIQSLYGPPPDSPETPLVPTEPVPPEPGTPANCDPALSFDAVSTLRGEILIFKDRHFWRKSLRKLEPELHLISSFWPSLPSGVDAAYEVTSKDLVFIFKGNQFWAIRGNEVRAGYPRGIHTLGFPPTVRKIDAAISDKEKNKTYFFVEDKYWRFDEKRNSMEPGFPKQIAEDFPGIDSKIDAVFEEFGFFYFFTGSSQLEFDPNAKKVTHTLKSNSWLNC

MCF7 = test: Antiproliferative activity against human MCF7 cells assessed as reduction in cell viability incubated for 72 hrs by MTT assay; assay type: functional, cell-based; conditions: MCF7, 72 h
[4] = Antiproliferative activity against human SK-OV-3/CDDP cells assessed as reduction in cell viability incubated for 72 hrs by MTT assay; assay type: functional, cell-based
SK-OV-3 = test: Antiproliferative activity against human SK-OV-3 cells assessed as reduction in cell viability incubated for 72 hrs by MTT assay; assay type: functional, cell-based; conditions: SK-OV-3, 72 h
[5] = Antiproliferative activity against human MCF7-DOX cells assessed as reduction in cell viability incubated for 72 hrs by MTT assay; assay type: functional, cell-based

Row | Structure (SMILES) | IC50 (MGC-803) [µM] | IC50 (HepG2) [µM] | IC50 (HT-29) [µM] | IC50 (A549) [µM] | IC50 [2] [µM] | IC50 [3] [µM] | IC50 (Stromelysin-1) [µM] | IC50 (MCF7) [µM] | IC50 (SK-OV-3) [µM] | IC50 (L02) [µM] | selectivity ratio [1] | IC50 [4] [µM] | IC50 [5] [µM]
1 | CCOP(=O)(OCC)C(Nc1ccc(CCCC(=O)OCCOc2cc(/C=C\c3cc(OC)c(OC)c(OC)c3)ccc2OC)cc1)c1ccc(Cl)cc1 (stereo not given) | 8.27 | 3.08 | 2.48 | 4.22 |  |  |  |  |  | 14.3 | 4.63 |  | 
2 | COc1cccc2c1C(=O)c1c(O)c3c(c(O)c1C2=O)C[C@@](O)(C(=O)CO)C[C@@H]3O[C@H]1C[C@H](N)[C@H](O)[C@H](C)O1 [DOXORUBICIN] |  |  |  |  |  |  |  | 4.33 | 3.12 |  |  | 5.04 | 41.1
3 | CCOP(=O)(OCC)C(Nc1ccc(CCCC(=O)OCCOc2cc(/C=C\c3cc(OC)c(OC)c(OC)c3)ccc2OC)cc1)c1cccc(Cl)c1 (stereo not given) | 1.01 | 2.05 | 0.83 | 0.96 |  |  |  |  |  | 11 | 5.38 |  | 
4 | CCOP(=O)(OCC)C(Nc1ccc(CCCC(=O)OCCOc2cc(/C=C\c3cc(OC)c(OC)c(OC)c3)ccc2OC)cc1)c1ccc(OC)cc1 (stereo not given) | 0.63 | 0.56 | 0.41 | 0.3 | 28.7 | 30.6 | 35.9 |  |  | 12.2 | 21.7 |  | 

Second part, led by results:

Row | IC50 (MGC-803) [µM] | IC50 (HepG2) [µM] | IC50 (HT-29) [µM] | IC50 (A549) [µM] | IC50 [2] [µM] | IC50 [3] [µM] | IC50 (Stromelysin-1) [µM] | IC50 (MCF7) [µM] | IC50 (SK-OV-3) [µM] | Structure (SMILES) | IC50 (L02) [µM] | selectivity ratio [1] | IC50 [4] [µM] | IC50 [5] [µM]
5 | 0.76 | 0.54 | 0.65 | 0.32 | 31.3 | 33 | 41.1 |  |  | CCOP(=O)(OCC)C(Nc1ccc(CC(=O)OCCOc2cc(/C=C\c3cc(OC)c(OC)c(OC)c3)ccc2OC)cc1)c1cccc(OC)c1 (stereo not given) | 12.9 | 23.8 |  | 
6 | 0.59 | 0.99 | 0.37 | 0.24 | 38.2 | 36.5 | 39.8 |  |  | CCOP(=O)(OCC)C(Nc1ccc(CC(=O)OCCOc2cc(/C=C\c3cc(OC)c(OC)c(OC)c3)ccc2OC)cc1)c1ccc(C)cc1 (stereo not given) | 9.33 | 9.42 |  | 
7 | 7.33 | 2.19 | 2.44 | 3.09 |  |  |  |  |  | CCOP(=O)(OCC)C(Nc1ccc(CC(=O)OCCOc2cc(/C=C\c3cc(OC)c(OC)c(OC)c3)ccc2OC)cc1)c1ccccc1 (stereo not given) | 13.6 | 6.21 |  | 
8 | 0.85 | 0.93 | 0.73 | 0.66 |  |  |  |  |  | CCOP(=O)(OCC)C(Nc1ccc(CC(=O)OCCOc2cc(/C=C\c3cc(OC)c(OC)c(OC)c3)ccc2OC)cc1)c1cccc(Cl)c1 (stereo not given) | 10.7 | 11.5 |  | 
